Results reported in a melting point compilation (Tetko et al.; mined from patent text by program, amines drawn as free bases though some values may be those of a salt).

melting point [°C] | Structure (SMILES)
75 to 78 | CCCCCCCCCCCCNC(=S)NCCCCCCCCCCCC
240 | NS(=O)(=O)c1cc2c(s1)SC(CC(=O)O)C(=O)N2 (centres undefined)
175 | COc1ccc(CN(C)CCOc2ccc(NC(=O)c3cccc4c(=O)cc(-c5ccccc5)[nH]c34)cc2)cc1OC
160 to 190 | O=C(NO)c1ccc2c(c1)CN(C(=O)c1ccc(-c3ccccc3)cc1)C2
217 to 218 | CC(=O)NCc1cccc(Nc2nccc(-c3sc(-c4ncc(C(F)(F)F)cc4Cl)nc3C)n2)c1
151 to 153 | Cc1ccccc1C(=O)c1cc2c(c(Br)c1O)CCCC2
175 | COC(=O)c1ccc(N)c(NC(=O)c2ccc(C(C)(C)C)cc2)c1
124 to 126 | C=CC(=O)NCC(=O)O
152 to 156 | CCOC(=O)C1CN(C(C)=O)CCN1CC=CC(=O)Nc1cc2c(Nc3ccc(F)c(Cl)c3)ncnc2cc1OCC1CC1 (centres undefined)
177 to 178 | CC1COC(=O)N1c1cc(-c2ccnc(Nc3cccc(Cl)c3)n2)ccn1 (centres undefined)
117 to 125 | Fc1ccc(Nc2nc(NCc3ccc(Cl)nc3)nc(NN=Cc3ccc(OC(F)(F)F)cc3)n2)cc1C(F)(F)F
84 to 86 | CCOc1cccc(-c2n[nH]c(-c3ccccc3C)n2)c1
62.2 to 63.1 | CCCCCCCCc1cc2c(cc1CCCCCCCC)c1ccsc1c1sccc21
216 to 218 | COc1ccnc(CCc2nc3cc(-c4ccc(S(N)(=O)=O)cc4)cnc3[nH]2)c1
224 | Cc1c(C)c(C2CC(=O)C=C(O)C2)c(Cl)c2c1CCO2 (centres undefined)
60 to 61 | COc1cccc2c1OC(C)C2=O (centres undefined)
138 to 140 | O=C(O)C1CCc2cc(C3CCCCCC3)c(Cl)cc21 (centres undefined)
213 to 214 | CC(C(=O)O)c1ccc2c(c1)C(=O)Cc1cc(F)ccc1S2 (centres undefined)
188 | CC(=O)c1cccc(-c2ccc(Oc3ncccc3C(=O)O)cc2)c1
135 to 138 | Cc1cc(F)ccc1-c1cc(N2CCS(=O)(=O)CC2)ncc1N(C)C(=O)C(C)(C)c1cc(C(F)(F)F)cc(C(F)(F)F)c1
158 to 164 | O=C(Cc1c[nH]c2ccccc12)Nc1ccc(-n2nc(C3CC3)cc2C2CC2)cc1

melting point [°C] | Structure (SMILES)
299 to 301 | COC(=O)CCCOc1ccc2nc3[nH]c(=O)[nH]c3cc2c1
> 250 | COc1cccc2c(OCc3ccc(C(C)C)cc3)ccc(C=NNC(=O)c3ccc(O)c(Cl)c3)c12
113 to 114 | CC1(CCS)C(=O)N2CC=CC(C(=O)O)N2C1=O (centres undefined)
156 | CCCc1nc(SCCCCC(=O)O)c(C(=O)O)n1Cc1cc2c(cc1Cl)OCO2
119 to 121 | CC1=C(C(=O)Nc2cccc(C#N)c2)SCCO1
138 to 139 | CC(=O)c1ccc(S(=O)(=O)N2CCCC2)cc1
189 to 191 | CCN1OCC(=Cc2cc(C(C)(C)C)c(O)c(C(C)(C)C)c2)C1=O
143 to 146 | Nc1nc(NC2CCc3ccccc32)c2ncn(C3OC(CO)C(O)C3O)c2n1 (centres undefined)
180 | COc1cccc2cc(C(=O)c3ccc(Cl)c(N)c3)oc12
166 to 167 | CC(=O)c1c(C)[nH]c(C(C)C)c1C
77 to 79 | CC(C)(C)NC(=O)C(C)(C)N(OC(C)(C)C#N)C(C)(C)C
183 to 185 | CCC(C)Oc1ccccc1-c1ncc(C(N)=O)c(=O)[nH]1 (centres undefined)
148 to 150 | N#Cc1ccccc1N1CCN(CNC(=O)c2ccccc2)CC1
93.1 to 93.7 | CC(=O)NCc1cc(C(C)=O)ccc1Cl
108 to 110 | CO[C@H]1c2ccn3c(C)c(C)nc3c2N[C@H](c2ccccc2)[C@H]1O
136 to 137 | Cc1cccc(Cl)c1C(N)=NO
94 to 95 | Cn1cc(C(=O)Nc2ccccc2OC(F)(F)C(F)Cl)c(C(F)(F)F)n1 (centres undefined)
78 to 79 | CSC(=NCCSCc1ccc(CN(C)C)o1)NC#N
192 | O=C(OCc1ccccc1)c1cc2cc([N+](=O)[O-])ccc2[nH]1
70 to 72 | c1ccc(OCCSCc2nnc(-c3ccc(OCCN4CCOCC4)cc3)o2)cc1

Further lines, the molecule ahead of its results:

Structure (SMILES) | melting point [°C]
O=C(c1ccccc1)N1CCc2cc(S(=O)(=O)N3CCN(c4cccc(Cl)c4)CC3)ccc21 | 200 to 201
CCOCc1cnc2c(NC(=O)c3c(Cl)cccc3Cl)cccc2c1N1CCN(C)C1=O | 173 to 177
O=C(O)c1ccccc1C(=O)N1Cc2ccccc2Cc2ccccc21 | 220 to 225
O=C(Nc1ccc(C[C@H](NS(=O)(=O)NCC2CCCCC2)C(=O)O)cc1)c1c(Cl)cncc1Cl | 196
NC1CCN(c2c(F)c(F)c3c(=O)c(C(=O)O)cn(C4CC4)c3c2F)C1 (centres undefined) | 290 to 292
Cc1cc2c(c(C)c1NCc1ccccc1)C(c1ccc(C(C)C)cc1)CO2 (centres undefined) | 82 to 83
COc1ccccc1N1CCN(C(=O)CCCN2CC=C(c3c[nH]c4cc(Cl)ccc34)CC2)CC1 | 93 to 95
O=c1n(-c2ccc(C(F)(F)F)cc2)c(=O)n2n1CC(c1ccccc1)C2c1ccc(Cl)cc1 (centres undefined) | 148 to 150
Cc1c(C)c2c(c(C)c1N)OC(C)(C)C2c1ccc(C(C)C)cc1 (centres undefined) | 120 to 121
O=C(OC1COC1)c1sccc1OS(=O)(=O)Cl | 92 to 94
CC1(C)CCC(C)(C)c2cc(C(=O)C=Cc3ccc(C(=O)O)c(O)c3)ccc21 | 260 to 261
CC(=O)OC[C@H]1OCC(=O)[C@@H](OC(C)=O)[C@@H]1OC(C)=O | 86 to 88
COC(=O)C(C)=Cc1ccc(O)cc1 | 103 to 104
COC(=O)C(Cl)=Cc1cc(-n2c(OC)nc(C(F)(F)F)cc2=O)ccc1Cl | 151 to 152
CC(=O)OCCCC(C(=O)C=Cc1ccc(O)c(OC(F)(F)F)c1)C(=O)C=Cc1ccc(O)c(OC(F)(F)F)c1 (centres undefined) | 130 to 131
O=C(O)c1cccc(NC(=O)C(CSC(=O)c2ccccc2)Cc2ccccc2)c1 (centres undefined) | 182 to 184
CCc1ccc(-c2nn(C)c(=O)c3ccccc23)c(CC)c1 | 94.5 to 96.5
O=c1[nH]nc2n1-c1ccc(N3CCCC3)nc1C(c1ccccc1Cl)=NC2 | 228 to 230
CCOC(=O)c1ccc2cccc([N+](=O)[O-])c2c1 | 120
CC(=O)CC(=O)N1CCc2cc(C(O)(C(F)(F)F)C(F)(F)F)ccc21 | 150 to 151

Structure (SMILES) | melting point [°C]
Cc1ccc(-c2ncc3c(n2)CCCC3)nc1Br | 125 to 128
O=C(c1cc(C(F)(F)F)cc(C(F)(F)F)c1)N1CCC2(CC1)C(=O)NCN2c1ccccc1 | 251
CCc1nsc(C(=O)NC(C)C)c1C(=O)O | 138 to 140
O=C1NC(=O)c2c1c(-c1ccccc1Cl)cc1c2c2cc(O)ccc2n1CCS(=O)(=O)c1ncn[nH]1 | 301 to 304
CC(C)CC(NC(=O)C(C)S)C(=O)O (centres undefined) | 77 to 84
CC12CCC(O)CC1=CCC1C2CCC2(C)C(c3ccsc3)=CCC12 (centres undefined) | 215 to 219
COc1cc2c(cc1CCCCN1CCCC1)[nH]c1cc(-c3ccccc3Cl)c3c(c12)C(=O)NC3=O | 173 to 178
O=C(O)c1cc(CBr)on1 | 143 to 148
CCOc1c(Cl)ccc(-c2cc(N)c(Cl)c(C(=O)OC)n2)c1F | 154 to 156
NC(=O)CNC(=O)c1cccc(-c2ccc(Cl)c3cc(Cc4ccc(F)c(F)c4)sc23)c1 | 188 to 189
Nc1cc([N+](=O)[O-])c[nH]c1=O | 200 to 201
O=C(NC(=O)N(SN1CCCC1=O)c1ccc(Oc2ccc(C(F)(F)F)cc2Cl)cc1F)c1c(F)cccc1F | 125 to 126
O=C(N=C1SCCN1Cc1ccc(Cl)nc1)c1ccccc1 | 133
C=CC[C@H]1CC(C(=O)OCC[Si](C)(C)C)=C[C@@H](OC(C)C)[C@@H]1NC(C)=O | 64 to 65
CC(=O)Nc1nc2c(s1)-c1c(cnn1C(N)=O)CC2 | 265 to 270
COc1ccccc1N1CCN(C(=O)Nc2cc3ccccc3nc2OC)CC1 | 159 to 161
Cc1ccc(S(=O)(=O)NC(C)(C)C)s1 | 89
COC(=O)c1cc(NC(=O)OC(C)(C)C)c([N+](=O)[O-])cc1C#Cc1ccccc1 | 173
Cc1ccc(COc2ccc3c(c2)c(C=CC(=O)O)cn3CC(=O)N(C)CCc2ccccc2)cc1 | 164 to 166
O=C1CCc2ccc(O)c(c2)Oc2ccc(cc2)C=CCO1 | 148 to 151

Structure (SMILES) | melting point [°C]
CCCCCc1c(C(O)CC)nc(C(C)C)c(CO)c1-c1ccc(F)cc1 (centres undefined) | 89 to 90
O=C(CCC(CSc1ccc2ccccc2c1)C(=O)O)OCc1ccccc1 (centres undefined) | 94 to 95
O=c1[nH]c(-c2c[nH]c3ccccc23)nc2ccc(N3CCCC3)cc12 | 298
CC12CCC(O[Si](C)(C)C(C)(C)C)CC1=CC(=O)C1C2CCC2(C)C(O[Si](C)(C)C(C)(C)C)CCC12 (centres undefined) | 99 to 101
Cc1csc(C(O)(c2nc(C)cs2)C(F)(F)F)n1 | 140 to 142
CCCCCN1C(=O)C2(COc3cc4nc(C)sc4cc32)c2ccccc21 (centres undefined) | 105 to 107
CS(=O)c1ccc(-c2nn(Cc3ccc(F)cc3F)c(=O)cc2-c2ccc(Cl)cc2)cc1 (centres undefined) | 156
COc1ccc(COC(=O)Nc2cc(-n3cccn3)nc(-c3ccco3)n2)cc1OC | 148
CCOC(=O)C1=C(C)NC(N)=C(C(=O)OCC)C1c1ccccc1C (centres undefined) | 130
CN(C)c1ccc(-c2nc3cccnc3o2)cc1 | 168 to 170
CN(C)c1ccc(N=Nc2ccc(C(=O)Nc3ccc4[nH]nnc4c3)cc2)cc1 | 246
CCOC(=O)C1=C(N)N=C(OCC)C(C(=O)OCC)C1c1ccc(SC)cc1 (centres undefined) | 132
CCOCCn1c(CN2CCN(CC(O)COc3ccccc3)CC2)nc2cccnc21 (centres undefined) | 102
COC(=O)c1ccc(Cl)cc1SCCC(=O)O | 133 to 136
CCCC1CC(=O)Nc2c1cnn2CC (centres undefined) | 108 to 110
O=C(O)C1(CC2CCCC2)CC1 | 42 to 45
ON=C(Cn1ccnc1)c1ccc(Cl)cc1 | 185 to 186
O=C1c2c(Cl)cccc2-n2cnc(-c3nc(C4CC4)no3)c2[C@@H]2CCN12 | 140 to 142
